Laboratory results: ChEMBL document CHEMBL1201862, “PubChem BioAssay data set” (2004)
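Grown in 96-well plates, cells were treated for 48 hours with each compound at five concentrations. Insufficient inhibition: endpoint recorded as highest concentration tested. GI50 is the concentration that inhibits growth by half.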 Activity calls are given as the source filed them. No stated cut-off is given here; in the data, active = GI50 up to about 1.1 µM and inactive = higher. Non-standard residues stand in square brackets, D forms with d. Residues, ends and D or L forms follow the SMILES beside them.

Experiments:
Test in all cases: growth of human tumour cells (NCI), 48 h
K562 = tested on: K562
LOX IMVI = tested on: LOX IMVI
SNB-78 = tested on: SNB-78
M19-MEL = tested on: M19-MEL
OVCAR-4 = tested on: OVCAR-4
LXFL 529 = tested on: LXFL 529
RPMI-8226 = tested on: RPMI-8226
ACHN = tested on: ACHN
U-251 = tested on: U-251
NCI-H23 = tested on: NCI-H23
786-0 = tested on: 786-0
UACC-62 = tested on: UACC-62
SW-620 = tested on: SW-620
NCI-H522 = tested on: NCI-H522
HOP-62 = tested on: HOP-62
SR = tested on: SR
NCI/ADR-RES = tested on: NCI/ADR-RES

Measured: GI50

COc1ccc2c(c1)[n+]([O-])c(-c1c(Cl)cccc1Cl)c(N)[n+]2[O-]
inactive: K562 53.6 µM | LOX IMVI 66.1 µM | SNB-78 69.3 µM | M19-MEL 40.3 µM | OVCAR-4 71.8 µM | LXFL 529 39.9 µM | RPMI-8226 80.4 µM | ACHN 62.4 µM | U-251 37.9 µM | NCI-H23 25.1 µM | 786-0 56.5 µM | UACC-62 37.7 µM | SW-620 47.1 µM | NCI-H522 > 10 µM

COc1ccc(/C=N/n2cnc3c(c2=O)S/C(=C2/SC(=S)N(c4ccc(C)cc4)C2=O)N3c2ccccc2)cc1
inactive: HOP-62 22.8 µM | K562 > 10 µM | LOX IMVI > 100 µM | M19-MEL > 100 µM | OVCAR-4 17.7 µM | LXFL 529 > 100 µM | RPMI-8226 40.8 µM | ACHN 49.1 µM | SR 31.6 µM | UACC-62 17.4 µM | SW-620 > 100 µM | NCI-H522 52.4 µM

CC1=NOC(=O)C1/N=N/c1ccc(Br)c(C)c1 (stereo not given)
inactive: HOP-62 22.3 µM | K562 13 µM | SNB-78 26.4 µM | M19-MEL 18.6 µM | OVCAR-4 15.2 µM | LXFL 529 15.5 µM | RPMI-8226 15.9 µM | ACHN 17.8 µM | U-251 18.5 µM | NCI-H23 21.6 µM | 786-0 20 µM | UACC-62 19.3 µM | SW-620 17.6 µM

CC(C)C[C@H](NC(=O)[C@H](CC(C)C)NC(=O)[C@@H](Cc1c[nH]c2ccccc12)NC(=O)[C@H](Cc1ccccc1)NC(=O)[C@@H](Cc1c[nH]c2ccccc12)NC(=O)[C@H](CCC(N)=O)NC(=O)[C@H](CCC(N)=O)NC(=O)[C@H]1CCCN1C(=O)[C@@H](N)CCCCN)C(N)=O (H-K[dP]QQ[dW]F[dW]LL-NH2)
inactive: HOP-62 > 100 µM | K562 > 100 µM | LOX IMVI > 100 µM | SNB-78 > 100 µM | M19-MEL > 100 µM | OVCAR-4 > 100 µM | RPMI-8226 > 100 µM | U-251 > 100 µM | NCI/ADR-RES > 100 µM | NCI-H23 > 100 µM | UACC-62 > 100 µM | SW-620 > 100 µM | NCI-H522 > 100 µM

CC(C)(C)C1=CC(=N/N=c2\scc(-c3ccccc3)n2Cc2ccccc2)C=C(C(C)(C)C)C1=O
inactive: HOP-62 > 100 µM | K562 > 100 µM | LOX IMVI > 100 µM | M19-MEL > 100 µM | OVCAR-4 > 100 µM | LXFL 529 > 100 µM | ACHN > 100 µM | U-251 > 100 µM | SR > 100 µM | NCI-H23 > 100 µM | 786-0 > 100 µM | UACC-62 > 100 µM | SW-620 > 100 µM

CN(Cc1ccccc1)C(=NC#N)N(C)Cc1ccccc1
inactive: HOP-62 > 100 µM | LOX IMVI > 100 µM | SNB-78 > 100 µM | M19-MEL > 100 µM | OVCAR-4 > 100 µM | LXFL 529 > 100 µM | ACHN > 100 µM | U-251 > 100 µM | NCI-H23 > 100 µM | 786-0 > 100 µM | UACC-62 > 100 µM | SW-620 > 100 µM | NCI-H522 > 100 µM

CCOc1ccc(NC(=O)CC2SC(N)=NC2=O)cc1 (stereo not given)
inactive: HOP-62 > 100 µM | LOX IMVI > 100 µM | SNB-78 > 100 µM | M19-MEL > 100 µM | OVCAR-4 > 100 µM | LXFL 529 > 100 µM | RPMI-8226 > 100 µM | ACHN > 100 µM | U-251 > 100 µM | NCI-H23 > 100 µM | 786-0 > 100 µM | UACC-62 > 100 µM | SW-620 > 100 µM

CC1NC(=O)CC(c2ccccc2)N(N=O)C1c1ccccc1 (stereo not given)
inactive: HOP-62 28.8 µM | K562 28 µM | LOX IMVI 37.9 µM | SNB-78 35.4 µM | M19-MEL 55.7 µM | OVCAR-4 19.9 µM | RPMI-8226 26.5 µM | U-251 39.6 µM | NCI/ADR-RES 25.2 µM | NCI-H23 36.2 µM | UACC-62 35.4 µM | SW-620 20.6 µM | NCI-H522 22.1 µM

CCOC(=O)C1=C(N)N(c2ccccc2)/C(=C(/C#N)c2nc3ccccc3[nH]2)S1
inactive: HOP-62 > 100 µM | K562 > 100 µM | LOX IMVI > 100 µM | SNB-78 > 100 µM | M19-MEL > 100 µM | OVCAR-4 > 100 µM | LXFL 529 > 100 µM | ACHN > 100 µM | U-251 > 100 µM | NCI-H23 > 100 µM | 786-0 > 100 µM | UACC-62 > 100 µM | SW-620 > 100 µM | NCI-H522 > 100 µM

CN(C)c1nc(N(C)C)nc(N(C)CN(C)c2ccc(Cl)cc2)n1
inactive: K562 > 100 µM | LOX IMVI > 100 µM | SNB-78 > 100 µM | M19-MEL > 100 µM | OVCAR-4 > 100 µM | LXFL 529 > 100 µM | ACHN > 100 µM | U-251 > 100 µM | NCI-H23 > 100 µM | UACC-62 > 100 µM | SW-620 > 100 µM | NCI-H522 > 100 µM
